{
  "source": "patent US11583525B2",
  "about": "“Geranylgeranyltransferase I inhibitor for treatment of a PTEN defective cancer” (H. LEE MOFFITT CANCER CENTER AND RESEARCH INSTITUTE, INC., priority 2017, dated 2023)",
  "key": {"Ca2+ response": {"system": "Ca2+ response", "assay": "Ca2+ response measured with aequorin in COS-7 cells expressing IP3R3(Q-FR/A-AA)", "type": "cell-based, African Green Monkey", "details": "serum re-stimulated 4 h with MG132, ATP", "description": "FIGS. 1A, 1B, 1C, 1D, 1E, 1F, 1G, and 1H show FBXL2-mediated degradation of IP3R3 controls Ca2+ flux and sensitivity to apoptosis. […] Left, two representative traces. Right, quantification of three independent experiments. P values were calculated by one-way ANOVA and multiple-comparisons test. Error bars indicate s.e.m. 1b, 1c, and 1d, Apoptosis evaluated after treatment with H2O2 using automated nuclei count analysis of twenty randomly chosen fields following a 16 h treatment (1b), immunoblot detection of cleaved PARP and cleaved caspase-3 following a 3 h treatment (1c), and automated analysis of cells with released cytochrome c (Cyt c) from 80 randomly chosen fields following a 3 h treatment (1d). […] P values were calculated by one-way ANOVA and multiple-comparisons test. […] Left, representative traces show concentrations of cytosolic Ca2+ measured with aequorin. Right, quantification of three independent experiments. P values were calculated by one-way ANOVA and multiple-comparisons test. […] Apoptosis shown in 1h was evaluated as in 1b, except that H2O2 treatment was for 5 h. Analysis of cytochrome c release shown in 1i was evaluated as in 1d. P values were calculated by unpaired t-test. […]\nFIGS. 7A, 7B, 7C, 7D, 7E, 7F, 7G, 7H, and 7I show FBXL2 controls Ca2+ mobilization and Ca2+-mediated apoptosis. […] P values were calculated by one-way ANOVA and multiple-comparisons test. […]"}, "IP3R3": {"system": "IP3R3", "assay": "IP3R3 levels and FBXL2 binding in HEK293T cells transfected with Flag-tagged FBXL2 constructs", "type": "cell-based, human", "description": "24 h post-transfection, cells were treated with MG132 for 3 h before harvesting for immunoprecipitation and immunoblotting as indicated. WCL, whole-cell lysate from untransfected cells. […] After harvesting, cells were lysed, and cell membranes (CM) were isolated and immunoprecipitated with either a normal mouse IgG or an anti-Flag antibody. Subsequently, immunoprecipitates were analysed by immunoblotting as indicated. The results of these experiments (n=2) indicate that FBXL2 is incorporated into a complete SCF ligase that binds its substrate(s) at cellular membranes. […] After harvesting, cells were lysed and cytoplasmic (CYTO) and cell membrane (CM) fractions were isolated and analysed by immunoblotting as indicated. Actin and calnexin are used as markers for cytoplasmic and cell membrane fractions, respectively. This experiment was performed twice. […] 24 h post-transfection, where indicated, cells were treated with MG132 for 3 h before harvesting for immunoprecipitation and immunoblotting. Ned. CUL1, neddylated CUL1. […] The experiment was performed in the presence or absence of MG132 as indicated. Whole-cell lysates were immunoblotted as indicated. The asterisk indicates a non-specific band. This experiment was performed twice. […] P values were calculated by unpaired t-test. Error bars indicate s.e.m. […] Error bars indicate s.e.m. The values represent the ratios between FBXL2 and GAPDH mRNAs. […]"}},
  "note": "Peptide text beside a SMILES is read from it. * marks the point of attachment. Cbz = O=C(OCc1ccccc1)*",
  "data": [
    {"compound": "CC(C)C[C@@H](C=O)NC(=O)[C@H](CC(C)C)NC(=O)[C@H](CC(C)C)NC(=O)OCc1ccccc1", "note": "[MG132] (Cbz-Leu-Leu-Leu-aldehyde)", "values": [
      {"measurement": "Ca2+ response", "setting": "Ca2+ response", "value": "did not produce an increase of the Ca2+ response"},
      {"measurement": "FBXL2-induced decrease in the levels of IP3R3", "setting": "IP3R3; HEK293T cells expressing wild-type FBXL2, MG132", "value": "this decrease was rescued by MG132 treatment"},
      {"measurement": "difference in IP3R3 binding between FBXL2(ΔF-box) and wild-type FBXL2", "setting": "IP3R3; HEK293T cells, MG132 for 3 h", "value": "this difference was abolished by MG132 treatment"}
    ]}
  ]
}
